What was measured:
Assay type in all cases: in vivo
[1] = tested on: Amaranthus retroflexus (AMARE); assay: C. Herbicidal pre-emergence efficacy, AMARE; settings: scored after about 3 weeks
How it was run: (§1)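 Pre-emergence test: formulated compounds sprayed as aqueous suspension or emulsion with 0.5% additive at 600 l/ha onto soil covering sown seeds, at rates corresponding to 320 g/ha or less. After about 3 weeks in greenhouse, efficacy scored visually as percent versus untreated controls (100% = plants dead).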

Poa annua (POAAN) = assay: A. Herbicidal pre-emergence efficacy, POAAN
How it was run: (§2)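 Pre-emergence soil-surface spray in sandy loam pots, WP/EC in water plus 0.5% additive, 600 L/ha. Visual % damage rating after about 3 weeks in greenhouse vs. untreated; 0% = control-like, 100% = dead plants. Rates up to 1280 g/ha.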

Setaria viridis (SETVI) = assay: B. Herbicidal post-emergence efficacy, SETVI
How it was run: (§3)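 Readout: visual % kill vs untreated, ~3 wk post-spray. Plants in sandy loam pots, treated at one-leaf stage; spray = WP/EC in water + 0.5% additive, 600 L/ha, dose ≤1280 g/ha.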

[2] = tested on: Echinochloa crus-galli (ECHCG); assay: E. Herbicidal post-emergence efficacy, ECHCG
How it was run: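 Greenhouse post-emergence spray, one-leaf stage (2–3 wk after sowing, sandy loam); WP/EC formulation, aqueous + 0.5% additive, 600 l/ha water; rates 320 g/ha or less. Visual rating ~3 wk later vs untreated; 0% = control-like, 100% = dead.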

[3] = tested on: Amaranthus retroflexus (AMARE); assay: A. Herbicidal pre-emergence efficacy, AMARE
How it was run: as §2

[4] = tested on: Abutilon theophrasti (ABUTH); assay: C. Herbicidal pre-emergence efficacy, ABUTH; settings: scored after about 3 weeks
How it was run: as §1

Stellaria media (STEME) [5] = assay: A. Herbicidal pre-emergence efficacy, STEME
How it was run: as §2

Stellaria media (STEME) [6] = assay: B. Herbicidal post-emergence efficacy, STEME
How it was run: as §3

SMILES	Pre-emergence efficacy against AMARE ([1]; 80 g/ha)	Pre-emergence efficacy against AMARE ([1]; 320 g/ha)	Pre-emergence efficacy against POAAN (Poa annua (POAAN); dosage 80 g/ha)	Pre-emergence efficacy against POAAN (Poa annua (POAAN); dosage 320 g/ha)	Pre-emergence efficacy against POAAN (Poa annua (POAAN); dosage 1280 g/ha)	Post-emergence efficacy against SETVI (Setaria viridis (SETVI); 320 g/ha)	Post-emergence efficacy against SETVI (Setaria viridis (SETVI); 1280 g/ha)	Post-emergence efficacy against ECHCG in % ([2]; application rate 80 g/ha)	Post-emergence efficacy against ECHCG in % ([2]; application rate 320 g/ha)	Pre-emergence efficacy against AMARE in % ([3]; 80 g/ha)	Pre-emergence efficacy against AMARE in % ([3]; 320 g/ha)	Pre-emergence efficacy against AMARE in % ([3]; 1280 g/ha)	Pre-emergence efficacy against ABUTH ([4]; 320 g/ha)	Pre-emergence efficacy against STEME (Stellaria media (STEME) [5]; dosage 80 g/ha)	Pre-emergence efficacy against STEME (Stellaria media (STEME) [5]; dosage 320 g/ha)	Pre-emergence efficacy against STEME (Stellaria media (STEME) [5]; dosage 1280 g/ha)	Post-emergence efficacy against STEME (Stellaria media (STEME) [6]; 80 g/ha)	Post-emergence efficacy against STEME (Stellaria media (STEME) [6]; 320 g/ha)	Post-emergence efficacy against STEME (Stellaria media (STEME) [6]; 1280 g/ha)	Pre-emergence efficacy against ABUTH ([4]; 80 g/ha)
O=S(=O)(CCCCl)Oc1ccccc1Oc1ncc(F)cn1 [Example I-5]	100%	100%	90%	100%	100%	90%	100%	80%	100%	100%	100%	100%	100%	90%	100%	100%	100%	100%	100%	–
O=S(=O)(CCC(F)(F)F)Oc1ccccc1Oc1ncc(Cl)cn1 [Example I-8]	100%	100%	90%	100%	100%	90%	90%	90%	90%	90%	90%	100%	100%	100%	100%	100%	–	90%	90%	100%
Cc1cccc(OS(=O)(=O)CCCCl)c1Oc1ncc(Cl)cn1 [Example I-12]	100%	100%	–	100%	100%	–	90%	–	90%	100%	100%	100%	90%	–	100%	100%	90%	90%	100%	80%
O=S(=O)(CCC(F)(F)F)Oc1c(Cl)cccc1Oc1ncc(Br)cn1 [Example I-32]	100%	100%	–	90%	90%	90%	100%	–	90%	90%	90%	100%	100%	–	90%	90%	100%	100%	100%	90%
O=S(=O)(CC1CC(F)(F)C1)Oc1c(F)cccc1Oc1ncc(Cl)cn1 [Example I-53]	100%	100%	100%	100%	100%	90%	90%	100%	100%	100%	100%	100%	100%	100%	100%	100%	90%	90%	90%	100%
COCCS(=O)(=O)Oc1c(F)cccc1Oc1ncc(Cl)cn1 [Example I-52]	100%	100%	–	90%	100%	–	90%	–	100%	90%	100%	100%	100%	90%	90%	100%	–	–	90%	80%
CC(C)CS(=O)(=O)Oc1ccccc1Oc1ncc(Cl)cn1 [Example I-7, [2-(5-Chloropyrimidin-2-yl)oxyphenyl] 2-methylpropane-1-sulfonate]	100%	100%	100%	100%	100%	–	90%	80%	100%	100%	100%	100%	100%	90%	90%	100%	–	90%	90%	–
CCCS(=O)(=O)Oc1ccccc1Oc1ncc(Cl)cn1 [Example I-3]	100%	100%	90%	100%	100%	–	90%	–	90%	100%	100%	100%	100%	100%	100%	100%	–	90%	100%	100%
O=S(=O)(CCCCl)Oc1c(F)cccc1Oc1ncc(Cl)cn1 [Example I-14]	100%	100%	100%	100%	100%	90%	100%	90%	100%	100%	100%	100%	100%	100%	100%	100%	100%	100%	100%	90%
